Results reported in ChEMBL document CHEMBL1806373, “Synthesis and biological evaluation of piperamide analogues as HDAC inhibitors” (Bioorg Med Chem Lett, 2011).
Active and inactive are the calls of the source. The calls are words filed in the database; no cut-off is given here.

Key:
HCT-116 = assay: Cytotoxicity against human HCT116 cells after 24 hrs by MTT assay; type: functional, cell-based; details: HCT-116, 24 h
Histone deacetylase 1 [1] = target: T1, Histone deacetylase 1 (Homo sapiens, UniProt Q13547); assay: Inhibition of human recombinant HDAC1 expressed in baculovirus infected insect High5 cells using Ac-Lys-Tyr-Lys(epsilon-acetyl)-AMC as substrate at 20 ug/ml by fluorescence assay
Histone deacetylase 3 [2] = target: T2, Histone deacetylase 3 (Homo sapiens, UniProt O15379); assay: Inhibition of human recombinant HDAC3 expressed in baculovirus infected insect High5 cells using Ac-Lys-Tyr-Lys(epsilon-acetyl)-AMC as substrate at 20 ug/ml by fluorescence assay
[3] = target: T3, Protein deacetylase HDAC6 (Homo sapiens) (UniProt Q9UBN7); assay: Inhibition of human recombinant HDAC6 expressed in baculovirus infected insect High5 cells using Boc-Lys(epsilon-acetyl)-AMC as substrate at 20 ug/ml by fluorescence assay
T3 sequence (whole entry): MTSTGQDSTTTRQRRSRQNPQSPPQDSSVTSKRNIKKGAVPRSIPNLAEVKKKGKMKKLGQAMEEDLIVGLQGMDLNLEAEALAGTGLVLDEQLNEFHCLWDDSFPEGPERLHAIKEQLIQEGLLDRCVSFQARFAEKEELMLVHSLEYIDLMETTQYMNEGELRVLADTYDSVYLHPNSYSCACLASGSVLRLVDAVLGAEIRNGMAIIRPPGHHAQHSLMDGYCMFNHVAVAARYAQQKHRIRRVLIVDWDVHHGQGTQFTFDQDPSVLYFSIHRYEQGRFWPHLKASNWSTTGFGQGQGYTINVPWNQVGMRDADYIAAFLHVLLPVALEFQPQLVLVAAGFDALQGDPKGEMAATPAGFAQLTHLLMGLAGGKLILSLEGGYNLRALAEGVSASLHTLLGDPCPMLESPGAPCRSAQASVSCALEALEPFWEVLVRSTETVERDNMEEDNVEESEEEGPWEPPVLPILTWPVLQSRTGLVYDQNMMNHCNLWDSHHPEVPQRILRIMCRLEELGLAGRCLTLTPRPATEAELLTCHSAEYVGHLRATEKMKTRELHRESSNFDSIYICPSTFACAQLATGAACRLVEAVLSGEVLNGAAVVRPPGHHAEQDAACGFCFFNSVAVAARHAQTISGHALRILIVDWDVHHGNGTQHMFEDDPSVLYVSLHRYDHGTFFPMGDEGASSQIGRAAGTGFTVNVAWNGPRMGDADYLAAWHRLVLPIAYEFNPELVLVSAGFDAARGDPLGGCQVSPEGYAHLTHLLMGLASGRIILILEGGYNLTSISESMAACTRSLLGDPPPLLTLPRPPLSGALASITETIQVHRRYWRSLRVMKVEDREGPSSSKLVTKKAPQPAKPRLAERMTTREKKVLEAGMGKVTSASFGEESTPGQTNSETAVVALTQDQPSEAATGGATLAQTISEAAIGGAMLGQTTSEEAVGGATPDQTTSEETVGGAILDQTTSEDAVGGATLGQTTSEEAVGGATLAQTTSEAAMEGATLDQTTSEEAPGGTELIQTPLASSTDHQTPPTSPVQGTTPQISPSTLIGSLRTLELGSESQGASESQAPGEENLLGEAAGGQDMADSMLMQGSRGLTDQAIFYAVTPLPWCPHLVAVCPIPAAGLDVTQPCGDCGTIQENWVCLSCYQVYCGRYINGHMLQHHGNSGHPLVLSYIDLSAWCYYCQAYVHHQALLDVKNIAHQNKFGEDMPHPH

Histone deacetylase 1 [4] = target: T1, Histone deacetylase 1; assay: Inhibition of human recombinant HDAC1 expressed in baculovirus infected insect High5 cells using Ac-Lys-Tyr-Lys(epsilon-acetyl)-AMC as substrate by fluorescence assay
Histone deacetylase 3 [5] = target: T2, Histone deacetylase 3; assay: Inhibition of human recombinant HDAC3 expressed in baculovirus infected insect High5 cells using Ac-Lys-Tyr-Lys(epsilon-acetyl)-AMC as substrate by fluorescence assay
[6] = target: T4, Protein deacetylase HDAC6 (Homo sapiens, UniProt Q9UBN7); assay: Inhibition of human recombinant HDAC6 expressed in baculovirus infected insect High5 cells using Boc-Lys(epsilon-acetyl)-AMC as substrate by fluorescence assay
T4 sequence (Q9UBN7 whole entry): T3 sequence (whole entry)

T2 sequence (O15379 whole entry): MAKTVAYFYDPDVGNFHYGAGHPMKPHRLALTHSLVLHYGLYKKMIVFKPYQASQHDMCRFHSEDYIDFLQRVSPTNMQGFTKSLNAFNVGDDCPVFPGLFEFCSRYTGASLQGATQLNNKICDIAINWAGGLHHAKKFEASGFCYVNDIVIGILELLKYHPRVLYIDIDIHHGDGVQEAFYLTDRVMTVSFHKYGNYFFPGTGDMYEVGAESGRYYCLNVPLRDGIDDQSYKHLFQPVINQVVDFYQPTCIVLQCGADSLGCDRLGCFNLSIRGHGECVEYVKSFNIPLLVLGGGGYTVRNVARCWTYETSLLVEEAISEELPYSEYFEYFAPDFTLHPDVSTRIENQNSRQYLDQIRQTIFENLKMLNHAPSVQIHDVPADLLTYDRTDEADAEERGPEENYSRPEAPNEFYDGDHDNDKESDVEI
T1 sequence (Q13547 whole entry): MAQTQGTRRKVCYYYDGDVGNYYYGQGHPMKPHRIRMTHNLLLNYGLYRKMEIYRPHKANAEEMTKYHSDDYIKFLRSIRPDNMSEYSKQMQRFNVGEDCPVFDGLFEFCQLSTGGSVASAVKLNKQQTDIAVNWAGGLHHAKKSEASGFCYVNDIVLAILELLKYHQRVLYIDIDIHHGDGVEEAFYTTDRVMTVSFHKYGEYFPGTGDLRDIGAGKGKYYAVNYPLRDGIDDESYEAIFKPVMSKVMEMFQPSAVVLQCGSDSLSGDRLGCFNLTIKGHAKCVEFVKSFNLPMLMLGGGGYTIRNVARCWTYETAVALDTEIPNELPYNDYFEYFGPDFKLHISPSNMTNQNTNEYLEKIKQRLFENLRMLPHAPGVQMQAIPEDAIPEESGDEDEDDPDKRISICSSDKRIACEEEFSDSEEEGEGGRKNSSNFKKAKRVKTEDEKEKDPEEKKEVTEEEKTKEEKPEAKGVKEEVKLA

Compound: O=C(O)/C=C/C=C/c1ccc2c(c1)OCO2 [PIPERIC ACID]
- IC50 (HCT-116): > 20 µM
- inhibition (Histone deacetylase 1 [1]): inactive
- inhibition (Histone deacetylase 3 [2]): inactive
- inhibition [3]: < 50%

Compound: O=C(O)/C=C/C=C/CC/C=C/c1ccc2c(c1)OCO2
- IC50 (HCT-116): > 20 µM
- inhibition (Histone deacetylase 1 [1]): < 50%
- inhibition (Histone deacetylase 3 [2]): < 50%
- inhibition [3]: < 50%

Compound: O=C(/C=C/C=C/CC/C=C/c1ccc2c(c1)OCO2)NO
- IC50 (Histone deacetylase 1 [4]): 0.73 µM
- IC50 (Histone deacetylase 3 [5]): 0.76 µM
- IC50 [6]: 0.73 µM
- IC50 (HCT-116): 4.4 µM

Compound: CC(C)CNC(=O)/C=C/C=C/c1ccc2c(c1)OCO2 [PIPERLONGUMININE]
- IC50 (HCT-116): > 20 µM
- inhibition (Histone deacetylase 1 [1]): inactive
- inhibition (Histone deacetylase 3 [2]): inactive
- inhibition [3]: < 50%

Compound: O=C(/C=C/C=C/c1ccc2c(c1)OCO2)NO
- IC50 [6]: 30.4 µM
- IC50 (HCT-116): 9.1 µM
- inhibition (Histone deacetylase 1 [1]): inactive
- inhibition (Histone deacetylase 3 [2]): inactive

Compound: CC(C)CNC(=O)/C=C/C=C/CC/C=C/c1ccc2c(c1)OCO2 [RETROFRACTAMIDE A]
- IC50 (HCT-116): > 20 µM
- inhibition (Histone deacetylase 1 [1]): < 50%
- inhibition (Histone deacetylase 3 [2]): < 50%
- inhibition [3]: < 50%

Compound: O=C(O)/C=C/C=C/CCCCc1ccc2c(c1)OCO2
- IC50 (HCT-116): > 20 µM
- inhibition (Histone deacetylase 1 [1]): < 50%
- inhibition (Histone deacetylase 3 [2]): < 50%
- inhibition [3]: < 50%

Compound: O=C(/C=C/C=C/CCCCc1ccc2c(c1)OCO2)NO
- IC50 (Histone deacetylase 1 [4]): 1.61 µM
- IC50 (Histone deacetylase 3 [5]): 1.52 µM
- IC50 [6]: 2.25 µM
- IC50 (HCT-116): 3.5 µM
